Measured values reported in patent publication US6924282B2, “Sodium salt of an HIV integrase inhibitor” (Merck & Co., Inc., priority 2001, dated 2005).

Key:
[1] = target: recombinant integrase (HIV integrase) (Human immunodeficiency virus type 1 group M subtype B, UniProt P04585); settings: strand transfer assay of Example 193 of WO 02/30930
Text: The strand transfer assay is described in Example 193 of WO 02/30930.

[2] = tested on: acute HIV infection of T-lymphoid cells; assay: assay for the inhibition of acute HIV infection of T-lymphoid cells; type: cell-based; settings: in accordance with Vacca et al., PNAS 1994, 91: 4096-4100
Text: Compound A is an inhibitor of HIV integrase.

[3] = oral bioavailability and pharmacokinetics in rats; type: in vivo; settings: relative to amorphous and crystalline Compound A
[4] = oral bioavailability and pharmacokinetics in dogs; type: in vivo; settings: relative to amorphous and crystalline Compound A
[5] = oral absorption and pharmacokinetics in animal models; type: in vivo; settings: compared to crystalline Compound A per se
Text: The present invention is directed to a pharmaceutically acceptable alkali metal salt of an HIV integrase inhibitor.

SMILES | inhibition of integrase strand transfer [1] | inhibition of acute HIV infection of T-lymphoid cells [2] | oral bioavailability [3] | pharmacokinetics (e.g., Cmax and AUC) [3] | oral bioavailability [4] | pharmacokinetics (e.g., Cmax and AUC) [4] | oral absorption [5] | pharmacokinetics [5]
O=C(NCc1ccc(F)cc1)c1nc(N2CCCCS2(=O)=O)c2cccnc2c1O [Compound A, 5-(1,1-dioxido-1,2-thiazinan-2-yl)-N-(4-fluorobenzyl)-8-hydroxy-1,6-naphthyridine-7-carboxamide] | potent inhibitor | active | – | – | – | – | – | –
O=C(NCc1ccc(F)cc1)c1nc(N2CCCCS2(=O)=O)c2cccnc2c1[O-].[Na+] [crystalline sodium salt of Compound A, Sodium salt of 5-(1,1-Dioxido-1,2-thiazinan-2-yl)-N-(4-fluorobenzyl)-8-hydroxy-1,6-naphthyridine-7-carboxamide] | – | – | superior oral bioavailability | improved pharmacokinetics | superior oral bioavailability | improved pharmacokinetics | superior oral absorption | improved pharmacokinetics
